13 compounds from PubChem BioAssay (NCI) can be followed below.

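Growth conditions: 96-well plates. Treatment: test compound, 48 hours, 5 concentrations. Analysis: linear interpolation between bracketing concentrations; unreached endpoints set to highest concentration. GI50 is the concentration that inhibits growth by half. At the TGI there is no net growth.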

Some test systems named below: MALME-3M melanoma; MOLT-4 leukemia; HCT-15 colon; OVCAR-5 ovarian; SF-268 CNS; 786-0 renal; TK-10 renal; HOP-92 NSCLC; U251 CNS; BT-549 breast.
Holding throughout (assay): NCI anticancer screen, dose series, 48 h

For `COc1cc2ccc(CC(N)=O)cc2cc1OC`, the TGI in the assay on MALME-3M melanoma, with MOLT-4 leukemia, with HCT-15 colon, in the assay on OVCAR-5 ovarian, with SF-268 CNS and in the assay on 786-0 renal was over 100 µM each time. Moreover, the TGI in the assay on TK-10 renal, in the assay with HOP-92 NSCLC and in the assay on U251 CNS was over 100 µM each time.

As to `Cc1ccc(C(=O)N=Nc2c(O)[nH]c3ccc(Cl)cc23)cc1`, the GI50 was 25 µM with BT-549 breast; 3.2 µM with MOLT-4 leukemia; 18 µM with HCT-15 colon; 44.6 µM with OVCAR-5 ovarian; 25.4 µM in the assay with SF-268 CNS; over 50 µM in the assay on 786-0 renal. The GI50 was 43.2 µM with TK-10 renal and 21.5 µM in the assay with U251 CNS. Further, the TGI in the assay with BT-549 breast, in the assay with MOLT-4 leukemia, in the assay with HCT-15 colon, in the assay on OVCAR-5 ovarian, with SF-268 CNS and in the assay with 786-0 renal was over 50 µM each time. In addition, the TGI in the assay on TK-10 renal and with U251 CNS was over 50 µM throughout.

As for `O=C(COc1ccc(-c2nc3cc(Cl)c(Cl)cc3[nH]2)cc1)N=Nc1c(O)[nH]c2ccccc12`, the GI50 in the assay with BT-549 breast was 12.7 µM; with MOLT-4 leukemia, 3.57 µM; in the assay on HCT-15 colon it was over 100 µM; with OVCAR-5 ovarian, over 100 µM; in the assay on 786-0 renal, 2.33 µM; with TK-10 renal it was over 33.1 µM. Moreover, the GI50 in the assay with HOP-92 NSCLC was 1.59 µM; in the assay with U251 CNS, 0.564 µM. Also, the TGI was 59 µM with BT-549 breast; over 100 µM with MOLT-4 leukemia; over 100 µM in the assay with HCT-15 colon; over 100 µM in the assay on OVCAR-5 ovarian; 8.5 µM in the assay on 786-0 renal; over 58.5 µM in the assay with TK-10 renal. The TGI in the assay with HOP-92 NSCLC is 5.22 µM; with U251 CNS, 2.1 µM.

Consider `Cc1ccc(C)c2c(N=Nc3ccccc3[N+](=O)[O-])c(O)[nH]c12`, for which the TGI with BT-549 breast, in the assay on MOLT-4 leukemia, with HCT-15 colon, in the assay with OVCAR-5 ovarian, with SF-268 CNS and in the assay on 786-0 renal was over 100 µM each time. The TGI with TK-10 renal, in the assay with HOP-92 NSCLC and with U251 CNS was over 100 µM in each case.

As to `Cc1cc2c(=O)cc(-c3ccc(F)cc3)oc2c(C(=O)O)c1C`, the TGI in the assay with MALME-3M melanoma, with MOLT-4 leukemia, with HCT-15 colon, with OVCAR-5 ovarian, with SF-268 CNS and in the assay with 786-0 renal was over 100 µM throughout. Also, the TGI in the assay on TK-10 renal and in the assay on U251 CNS was over 100 µM in each case.

For the compound `O=C(Sc1sc(=S)sc1SC(=O)c1ccccc1)c1ccccc1`, the TGI in the assay with MALME-3M melanoma, with MOLT-4 leukemia, with HCT-15 colon, with OVCAR-5 ovarian, in the assay with SF-268 CNS and with 786-0 renal was over 100 µM in each case. In addition, the values for the TGI in the assay with TK-10 renal, in the assay on HOP-92 NSCLC and in the assay on U251 CNS were over 100 µM, over 100 µM and 80.7 µM, respectively.

Regarding `CCOP(=O)(CC(=O)C1=C(O)C(CCCCNC(=O)OC(C)(C)C)N(Cc2ccccc2)C1=O)OCC` (stereo not drawn), the TGI in the assay with MALME-3M melanoma, in the assay with MOLT-4 leukemia, with OVCAR-5 ovarian, with SF-268 CNS, in the assay with 786-0 renal and in the assay with TK-10 renal was over 100 µM each time. Also, the TGI with U251 CNS is over 100 µM.

As to `CCN(CC)CCC(=O)/C=C/c1ccc(C)cc1`, the TGI in the assay with MALME-3M melanoma is 34 µM; with MOLT-4 leukemia it was 38.2 µM; in the assay on HCT-15 colon it was 36.3 µM; in the assay with OVCAR-5 ovarian it was 32.6 µM; in the assay with SF-268 CNS it was 30.4 µM; in the assay with 786-0 renal it was 24.7 µM. Further, the TGI in the assay on TK-10 renal amounted to 19.3 µM; with HOP-92 NSCLC, 35.4 µM; in the assay on U251 CNS, 22.3 µM.

Consider `COc1cc2c(cc1OC)[C@@H]([C@H](O)c1ccccc1)NCC2`, for which the TGI in the assay with MALME-3M melanoma, in the assay with MOLT-4 leukemia, with HCT-15 colon, in the assay with OVCAR-5 ovarian, in the assay with SF-268 CNS and in the assay with 786-0 renal was over 100 µM each time. Moreover, the TGI with TK-10 renal, with HOP-92 NSCLC and with U251 CNS was over 100 µM each time.

For the compound `C/C=C1\CCC2c3[nH]c4ccccc4c3CCN2C1` (stereo not drawn), the TGI with MALME-3M melanoma is over 100 µM; in the assay with MOLT-4 leukemia, over 100 µM; with SF-268 CNS it was over 100 µM; in the assay on 786-0 renal, over 100 µM; in the assay with TK-10 renal, over 100 µM; in the assay on HOP-92 NSCLC, 99.7 µM. The same compound had a TGI in the assay with U251 CNS of over 100 µM.

In the case of `CCOC(=O)c1nc2cc(C(F)(F)F)ccc2[n+]([O-])c1C`, the GI50 with BT-549 breast, in the assay with MALME-3M melanoma, in the assay with MOLT-4 leukemia, in the assay on HCT-15 colon, in the assay with OVCAR-5 ovarian and in the assay with SF-268 CNS was over 100 µM each time. Also, the GI50 in the assay with 786-0 renal, with TK-10 renal and in the assay on U251 CNS was over 100 µM throughout. In addition, the TGI with BT-549 breast, in the assay with MALME-3M melanoma, with MOLT-4 leukemia, with HCT-15 colon, in the assay with OVCAR-5 ovarian and in the assay on SF-268 CNS was over 100 µM each time. Besides, the TGI with 786-0 renal, with TK-10 renal and with U251 CNS was over 100 µM each time.

In the case of `CCCCCCCCCCCCCCNCC(OCC)OCC`, the TGI in the assay on MALME-3M melanoma stood at 32 µM; in the assay with HCT-15 colon, 23.2 µM; in the assay with OVCAR-5 ovarian it was 28.6 µM; in the assay on SF-268 CNS it was 36.7 µM; in the assay with 786-0 renal, 33 µM; in the assay on TK-10 renal it was 32.7 µM. For the same compound, the TGI was determined as 26.4 µM in the assay on HOP-92 NSCLC and 30.5 µM in the assay on U251 CNS.

Consider `CN(C)CCOc1ccc(-c2cc(-c3ccc4c(c3)CC/C4=N\O)c(-c3ccncc3)o2)cc1`, for which the GI50 was 4.35 µM in the assay on BT-549 breast; 0.0245 µM in the assay on MALME-3M melanoma; 3.86 µM in the assay with MOLT-4 leukemia; 3.35 µM with HCT-15 colon; 3.32 µM with OVCAR-5 ovarian; 4.72 µM with SF-268 CNS. Also, the values for the GI50 in the assay on 786-0 renal, with TK-10 renal and in the assay with U251 CNS were 3.55 µM, 5.62 µM and 2.41 µM, respectively. Besides, the TGI with BT-549 breast was found to be 8.03 µM; in the assay with MALME-3M melanoma it was 0.179 µM; with MOLT-4 leukemia, 10.3 µM; with HCT-15 colon, 7.09 µM; in the assay on OVCAR-5 ovarian, 6.79 µM; in the assay with SF-268 CNS it was 9.94 µM. For the same compound, the TGI came out at 7.75 µM with 786-0 renal, 9.79 µM with TK-10 renal and 5.55 µM in the assay on U251 CNS.
